Results published in patent US8192962B2, “Processes for detecting toxic substances” (Daikin Industries, Ltd., priority 2001, dated 2012).

System: Unknown protein yeast genes
Assay: DNA chip mRNA expression in yeast, unknown protein yeast genes (Table 1)
Assay type: cell-based, Saccharomyces cerevisiae S288C
Outline: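 Untreated cultures served as reference for log-phase S288C yeast given a growth-inhibiting, non-lethal toxicant dose for 2 h at 25° C. in YPD. Gene expression was measured on a whole-genome DNA chip from Cy3/Cy5-labeled cDNA.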

## manganese ethylenebis(dithiocarbamate) [(8)]
Yeast gene YKL195W, incubated two hours with chemical substance
  The level of expressed mRNA in the presence of chemical substance/The level of expressed mRNA in the absence of chemical substance: 1.2
Yeast gene YKR091W, incubated two hours with chemical substance
  The level of expressed mRNA in the presence of chemical substance/The level of expressed mRNA in the absence of chemical substance: 1.3
Yeast gene YLR054C, incubated two hours with chemical substance
  The level of expressed mRNA in the presence of chemical substance/The level of expressed mRNA in the absence of chemical substance: 1.1
Yeast gene YLR149C, incubated two hours with chemical substance
  The level of expressed mRNA in the presence of chemical substance/The level of expressed mRNA in the absence of chemical substance: 1.1
Yeast gene YLR152C, incubated two hours with chemical substance
  The level of expressed mRNA in the presence of chemical substance/The level of expressed mRNA in the absence of chemical substance: 1.2
Yeast gene YLR194C, incubated two hours with chemical substance
  The level of expressed mRNA in the presence of chemical substance/The level of expressed mRNA in the absence of chemical substance: 1.0
Yeast gene YLR324W, incubated two hours with chemical substance
  The level of expressed mRNA in the presence of chemical substance/The level of expressed mRNA in the absence of chemical substance: 1.0
Yeast gene YLR350W, incubated two hours with chemical substance
  The level of expressed mRNA in the presence of chemical substance/The level of expressed mRNA in the absence of chemical substance: 1.0
Yeast gene YLR387C, incubated two hours with chemical substance
  The level of expressed mRNA in the presence of chemical substance/The level of expressed mRNA in the absence of chemical substance: 1.4
Yeast gene YLR460C
  The level of expressed mRNA in the presence of chemical substance/The level of expressed mRNA in the absence of chemical substance: 8.1
Yeast gene YML117W, incubated two hours with chemical substance
  The level of expressed mRNA in the presence of chemical substance/The level of expressed mRNA in the absence of chemical substance: 0.7
Yeast gene YMR009W, incubated two hours with chemical substance
  The level of expressed mRNA in the presence of chemical substance/The level of expressed mRNA in the absence of chemical substance: 1.4
Yeast gene YMR067C, incubated two hours with chemical substance
  The level of expressed mRNA in the presence of chemical substance/The level of expressed mRNA in the absence of chemical substance: 1.1
Yeast gene YMR090W
  The level of expressed mRNA in the presence of chemical substance/The level of expressed mRNA in the absence of chemical substance: 3.9
Yeast gene YMR095C, incubated two hours with chemical substance
  The level of expressed mRNA in the presence of chemical substance/The level of expressed mRNA in the absence of chemical substance: 1.2
Yeast gene YMR097C, incubated two hours with chemical substance
  The level of expressed mRNA in the presence of chemical substance/The level of expressed mRNA in the absence of chemical substance: 1.5
Yeast gene YMR102C, incubated two hours with chemical substance
  The level of expressed mRNA in the presence of chemical substance/The level of expressed mRNA in the absence of chemical substance: 1.0
Yeast gene YMR107W, incubated two hours with chemical substance
  The level of expressed mRNA in the presence of chemical substance/The level of expressed mRNA in the absence of chemical substance: 1.3
Yeast gene YMR180C, incubated two hours with chemical substance
  The level of expressed mRNA in the presence of chemical substance/The level of expressed mRNA in the absence of chemical substance: 1.8
Yeast gene YMR184W, incubated two hours with chemical substance
  The level of expressed mRNA in the presence of chemical substance/The level of expressed mRNA in the absence of chemical substance: 1.9
Yeast gene YMR191W, incubated two hours with chemical substance
  The level of expressed mRNA in the presence of chemical substance/The level of expressed mRNA in the absence of chemical substance: 1.1
Yeast gene YMR295C, incubated two hours with chemical substance
  The level of expressed mRNA in the presence of chemical substance/The level of expressed mRNA in the absence of chemical substance: 1.0
Yeast gene YMR316W, incubated two hours with chemical substance
  The level of expressed mRNA in the presence of chemical substance/The level of expressed mRNA in the absence of chemical substance: 1.6
Yeast gene YNL044W, incubated two hours with chemical substance
  The level of expressed mRNA in the presence of chemical substance/The level of expressed mRNA in the absence of chemical substance: 1.8
Yeast gene YNL074C, incubated two hours with chemical substance
  The level of expressed mRNA in the presence of chemical substance/The level of expressed mRNA in the absence of chemical substance: 0.6
Yeast gene YNL092W, incubated two hours with chemical substance
  The level of expressed mRNA in the presence of chemical substance/The level of expressed mRNA in the absence of chemical substance: 0.9
Yeast gene YNL115C, incubated two hours with chemical substance
  The level of expressed mRNA in the presence of chemical substance/The level of expressed mRNA in the absence of chemical substance: 0.8
Yeast gene YNL156C, incubated two hours with chemical substance
  The level of expressed mRNA in the presence of chemical substance/The level of expressed mRNA in the absence of chemical substance: 1.2
Yeast gene YNL234W, incubated two hours with chemical substance
  The level of expressed mRNA in the presence of chemical substance/The level of expressed mRNA in the absence of chemical substance: 1.3
Yeast gene YNL281W, incubated two hours with chemical substance
  The level of expressed mRNA in the presence of chemical substance/The level of expressed mRNA in the absence of chemical substance: 1.2
Yeast gene YNL305C, incubated two hours with chemical substance
  The level of expressed mRNA in the presence of chemical substance/The level of expressed mRNA in the absence of chemical substance: 0.7
Yeast gene YNR068C, incubated two hours with chemical substance
  The level of expressed mRNA in the presence of chemical substance/The level of expressed mRNA in the absence of chemical substance: 1.1
Yeast gene YOL032W, incubated two hours with chemical substance
  The level of expressed mRNA in the presence of chemical substance/The level of expressed mRNA in the absence of chemical substance: 1.5
Yeast gene YOL036W, incubated two hours with chemical substance
  The level of expressed mRNA in the presence of chemical substance/The level of expressed mRNA in the absence of chemical substance: 0.8
Yeast gene YOL047C, incubated two hours with chemical substance
  The level of expressed mRNA in the presence of chemical substance/The level of expressed mRNA in the absence of chemical substance: 1.1
Yeast gene YOL071W, incubated two hours with chemical substance
  The level of expressed mRNA in the presence of chemical substance/The level of expressed mRNA in the absence of chemical substance: 1.6
Yeast gene YOL082W, incubated two hours with chemical substance
  The level of expressed mRNA in the presence of chemical substance/The level of expressed mRNA in the absence of chemical substance: 1.1
Yeast gene YOL083W, incubated two hours with chemical substance
  The level of expressed mRNA in the presence of chemical substance/The level of expressed mRNA in the absence of chemical substance: 1.3
Yeast gene YOL117W, incubated two hours with chemical substance
  The level of expressed mRNA in the presence of chemical substance/The level of expressed mRNA in the absence of chemical substance: 1.1
Yeast gene YOL131W, incubated two hours with chemical substance
  The level of expressed mRNA in the presence of chemical substance/The level of expressed mRNA in the absence of chemical substance: 1.1
Yeast gene YOL150C
  The level of expressed mRNA in the presence of chemical substance/The level of expressed mRNA in the absence of chemical substance: 3.7
Yeast gene YOL162W, incubated two hours with chemical substance
  The level of expressed mRNA in the presence of chemical substance/The level of expressed mRNA in the absence of chemical substance: 1.6
Yeast gene YOR019W, incubated two hours with chemical substance
  The level of expressed mRNA in the presence of chemical substance/The level of expressed mRNA in the absence of chemical substance: 1.1
Yeast gene YOR197W, incubated two hours with chemical substance
  The level of expressed mRNA in the presence of chemical substance/The level of expressed mRNA in the absence of chemical substance: 0.9
Yeast gene YPL087W, incubated two hours with chemical substance
  The level of expressed mRNA in the presence of chemical substance/The level of expressed mRNA in the absence of chemical substance: 1.0
Yeast gene YPL196W, incubated two hours with chemical substance
  The level of expressed mRNA in the presence of chemical substance/The level of expressed mRNA in the absence of chemical substance: 1.2
Yeast gene YPL206C, incubated two hours with chemical substance
  The level of expressed mRNA in the presence of chemical substance/The level of expressed mRNA in the absence of chemical substance: 1.0
Yeast gene YPL222W, incubated two hours with chemical substance
  The level of expressed mRNA in the presence of chemical substance/The level of expressed mRNA in the absence of chemical substance: 0.7
Yeast gene YPR023C, incubated two hours with chemical substance
  The level of expressed mRNA in the presence of chemical substance/The level of expressed mRNA in the absence of chemical substance: 0.9
Yeast gene YPR151C, incubated two hours with chemical substance
  The level of expressed mRNA in the presence of chemical substance/The level of expressed mRNA in the absence of chemical substance: 1.4
